# Earlier results as cited in patent US12239625B2, “Modified release gamma-hydroxybutyrate formulations having improved pharmacokinetics” (Flamel Ireland Limited, priority 2016, dated 2025).
# Like-named read-outs stand apart in the source and are kept apart here.
# Experiments:
# plasma proteins = details: GHB concentrations 3 mcg/mL to 300 mcg/mL
# rat [1] = details: 2-year study
# mouse = details: 2-year study
# CYP2C9 = CYP2C9 (Homo sapiens, UniProt P11712); details: up to 3 mM (378 mcg/mL)
# rat [2] = details: in vivo
# CYP2D6 = CYP2D6 (Homo sapiens, UniProt P10635); details: up to 3 mM (378 mcg/mL)
# CYP2C19 = CYP2C19 (Homo sapiens, UniProt P33261); details: up to 3 mM (378 mcg/mL)
# mammalian cells = details: in vitro
# rats [3] = tested on: rats
# CYP2E1 = CYP2E1 (Homo sapiens, UniProt P05181); details: up to 3 mM (378 mcg/mL)
# [4] = single oral dose 25 mg/kg
# bacterial gene mutation = details: in vitro
# CYP1A2 = target: T1, CYP1A2 (Homo sapiens, UniProt P05177); details: up to 3 mM (378 mcg/mL)
# T1 sequence (P05177 1-516): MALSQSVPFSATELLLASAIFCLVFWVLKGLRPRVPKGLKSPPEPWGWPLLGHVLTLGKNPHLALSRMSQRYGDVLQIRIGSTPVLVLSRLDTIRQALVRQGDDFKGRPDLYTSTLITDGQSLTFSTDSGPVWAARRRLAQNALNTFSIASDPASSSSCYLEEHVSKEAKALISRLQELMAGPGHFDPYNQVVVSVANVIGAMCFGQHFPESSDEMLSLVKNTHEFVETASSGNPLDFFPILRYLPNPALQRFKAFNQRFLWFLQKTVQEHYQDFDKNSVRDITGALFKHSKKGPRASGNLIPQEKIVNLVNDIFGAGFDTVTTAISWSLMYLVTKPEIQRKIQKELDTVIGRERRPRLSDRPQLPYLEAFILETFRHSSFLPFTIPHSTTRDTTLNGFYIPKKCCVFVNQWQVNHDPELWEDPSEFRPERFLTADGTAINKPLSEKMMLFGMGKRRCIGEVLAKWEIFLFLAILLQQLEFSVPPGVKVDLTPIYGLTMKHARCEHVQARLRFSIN
# [5] = 6 g per day as two 3 g doses; ibuprofen 800 mg four times per day
# CYP3A = details: up to 3 mM (378 mcg/mL)
# rats [6] = tested on: rats; remark: listed apart in the source
# male and female rats = details: oral 150, 350, or 1,000 mg/kg/day prior to and throughout mating
# patients with narcolepsy = details: estimated dose of 150 g
# Sequence of CYP2E1 (P05181 whole entry): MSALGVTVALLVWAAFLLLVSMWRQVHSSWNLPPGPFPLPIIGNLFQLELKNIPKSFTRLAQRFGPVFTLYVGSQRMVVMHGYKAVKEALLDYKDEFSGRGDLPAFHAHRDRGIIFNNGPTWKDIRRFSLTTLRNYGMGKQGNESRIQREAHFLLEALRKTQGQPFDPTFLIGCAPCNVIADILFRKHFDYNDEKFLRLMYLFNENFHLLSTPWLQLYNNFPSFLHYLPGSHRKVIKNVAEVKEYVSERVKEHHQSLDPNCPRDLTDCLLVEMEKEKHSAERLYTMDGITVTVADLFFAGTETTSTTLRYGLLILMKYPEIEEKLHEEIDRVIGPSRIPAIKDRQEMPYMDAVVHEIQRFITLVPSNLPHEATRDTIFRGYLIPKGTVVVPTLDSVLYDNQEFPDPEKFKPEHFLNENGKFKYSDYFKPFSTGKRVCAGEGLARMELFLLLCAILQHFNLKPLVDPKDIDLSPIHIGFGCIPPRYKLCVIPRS
# Sequence of CYP2C9 (P11712 whole entry): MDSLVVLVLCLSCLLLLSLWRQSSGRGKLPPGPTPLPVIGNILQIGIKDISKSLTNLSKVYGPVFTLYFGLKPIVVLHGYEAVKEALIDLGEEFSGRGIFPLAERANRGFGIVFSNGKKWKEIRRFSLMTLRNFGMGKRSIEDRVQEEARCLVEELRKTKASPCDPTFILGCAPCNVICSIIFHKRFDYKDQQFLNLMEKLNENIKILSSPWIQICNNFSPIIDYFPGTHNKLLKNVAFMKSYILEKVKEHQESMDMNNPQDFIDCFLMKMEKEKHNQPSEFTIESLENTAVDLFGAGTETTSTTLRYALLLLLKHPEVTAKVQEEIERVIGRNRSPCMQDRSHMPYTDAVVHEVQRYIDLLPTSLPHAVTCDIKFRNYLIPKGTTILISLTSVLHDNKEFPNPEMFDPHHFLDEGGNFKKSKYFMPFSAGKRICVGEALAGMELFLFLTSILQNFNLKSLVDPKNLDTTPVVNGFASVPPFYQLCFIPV
# Sequence of CYP2D6 (P10635 whole entry): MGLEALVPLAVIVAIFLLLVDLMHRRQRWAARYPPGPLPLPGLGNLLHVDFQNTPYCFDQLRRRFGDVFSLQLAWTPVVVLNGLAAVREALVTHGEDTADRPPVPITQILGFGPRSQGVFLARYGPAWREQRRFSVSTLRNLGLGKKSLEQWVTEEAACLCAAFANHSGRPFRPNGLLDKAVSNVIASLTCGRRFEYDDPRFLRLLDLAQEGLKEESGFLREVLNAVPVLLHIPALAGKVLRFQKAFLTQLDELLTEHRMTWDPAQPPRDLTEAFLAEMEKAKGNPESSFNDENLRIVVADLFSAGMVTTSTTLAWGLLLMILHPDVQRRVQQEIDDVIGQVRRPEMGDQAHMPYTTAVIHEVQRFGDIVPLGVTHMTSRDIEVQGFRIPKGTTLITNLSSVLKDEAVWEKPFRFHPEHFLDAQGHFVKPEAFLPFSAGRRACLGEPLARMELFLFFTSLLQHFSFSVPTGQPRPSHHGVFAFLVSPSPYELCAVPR
# Sequence of CYP2C19 (P33261 whole entry): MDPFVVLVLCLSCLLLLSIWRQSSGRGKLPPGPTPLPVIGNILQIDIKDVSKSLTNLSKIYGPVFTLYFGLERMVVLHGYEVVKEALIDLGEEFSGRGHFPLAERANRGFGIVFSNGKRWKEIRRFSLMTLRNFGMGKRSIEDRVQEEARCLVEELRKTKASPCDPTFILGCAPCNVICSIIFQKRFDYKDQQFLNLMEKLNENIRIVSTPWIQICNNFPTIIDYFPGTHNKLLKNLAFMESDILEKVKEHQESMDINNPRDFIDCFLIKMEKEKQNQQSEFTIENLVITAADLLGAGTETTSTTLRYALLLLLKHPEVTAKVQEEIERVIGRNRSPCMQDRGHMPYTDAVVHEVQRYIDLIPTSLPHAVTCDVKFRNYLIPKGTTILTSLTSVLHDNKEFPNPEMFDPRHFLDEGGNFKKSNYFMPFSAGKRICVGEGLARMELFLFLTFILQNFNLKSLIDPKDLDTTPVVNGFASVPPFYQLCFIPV
compound,measurement,setting,value
"O=C(O)CCCO [GHB, gamma-hydroxybutyrate]",Bound to plasma proteins,plasma proteins,less than 1%
same,Excretion in human milk,after oral administration of sodium oxybate,excreted in human milk
same,Apparent volume of distribution,"human, in vivo",0.19 to 0.384 L/kg
same,Elimination half-life,"human, in vivo",30 to 60 min
same,Unchanged drug in human urine,within 6 to 8 hours after dosing,less than 5%
O=C1CCCO1 [gamma-butyrolactone],Carcinogenic activity,rat [1],no clear evidence of carcinogenic activity
same,Carcinogenic activity,mouse,no clear evidence of carcinogenic activity
"O=C([O-])CCCO.[Na+] [sodium oxybate, sodium 4-hydroxybutyrate]",Inhibition of CYP2C9 activity,CYP2C9,does not significantly inhibit
same,Micronucleus,rat [2],negative
same,Inhibition of CYP2D6 activity,CYP2D6,does not significantly inhibit
same,Developmental toxicity,"pregnant rabbits; oral 300, 600, or 1,200 mg/kg/day throughout organogenesis",no clear evidence of developmental toxicity
same,Highest dose tested as multiple of the MRHD (9 g per night) on mg/m2 basis,pregnant rabbits; rabbits,~3 times
same,Inhibition of CYP2C19 activity,CYP2C19,does not significantly inhibit
same,Gender differences in the pharmacokinetics of GHB,"18 female and 18 male healthy adults, oral dose 4.5 g",no gender differences
same,Developmental toxicity,"pregnant rats; oral 150, 350, or 1,000 mg/kg/day throughout organogenesis",no clear evidence of developmental toxicity
same,Highest dose tested as multiple of the MRHD (9 g per night) on mg/m2 basis,pregnant rats; rats,approximately 1 times
same,Chromosomal aberration,mammalian cells,negative
same,Tumors,"rats [3]; oral doses up to 1,000 mg/kg/day for 83 (males) or 104 (females) weeks",no increase in tumors
same,Plasma exposure (AUC) at the highest dose tested as multiple of that in humans at the MRHD,rats [3]; rats,2 times
same,Inhibition of CYP2E1 activity,CYP2E1,does not significantly inhibit
same,Mean elimination half-life,[4]; Class A,32 min
same,Mean elimination half-life,[4]; Class C,59 min
same,Mean elimination half-life,[4]; control patients,22 min
same,Bacterial gene mutation,bacterial gene mutation,negative
same,Inhibition of CYP1A2 activity,CYP1A2,does not significantly inhibit
same,Systemic exposure to GHB on co-administration with ibuprofen,[5],comparable systemic exposure to GHB
same,Inhibition of CYP3A activity,CYP3A,does not significantly inhibit
same,Body weight gain and sexual maturation,rats [6]; at the highest dose tested (900 mg/kg/day),Reduced body weight gain in males and females and delayed sexual maturation in males
same,Mortality,"rats [6]; oral 0, 100, 300, or 900 mg/kg/day, postnatal days 21 through 90",mortality was observed at the two highest closes tested
same,Effects on fertility,male and female rats,no adverse effects on fertility
same,Overdose case,patients with narcolepsy,unresponsive with brief periods of apnea
